Measured values published in patent US20070197509A1, “Compositions and methods for modulating gated ion channels” (PainCeptor Pharma Corporation, priority 2005, published 2007).

Biological target: T1, hASIC3 (Homo sapiens, UniProt Q9UHC3)
T1 sequence (Q9UHC3 1-531): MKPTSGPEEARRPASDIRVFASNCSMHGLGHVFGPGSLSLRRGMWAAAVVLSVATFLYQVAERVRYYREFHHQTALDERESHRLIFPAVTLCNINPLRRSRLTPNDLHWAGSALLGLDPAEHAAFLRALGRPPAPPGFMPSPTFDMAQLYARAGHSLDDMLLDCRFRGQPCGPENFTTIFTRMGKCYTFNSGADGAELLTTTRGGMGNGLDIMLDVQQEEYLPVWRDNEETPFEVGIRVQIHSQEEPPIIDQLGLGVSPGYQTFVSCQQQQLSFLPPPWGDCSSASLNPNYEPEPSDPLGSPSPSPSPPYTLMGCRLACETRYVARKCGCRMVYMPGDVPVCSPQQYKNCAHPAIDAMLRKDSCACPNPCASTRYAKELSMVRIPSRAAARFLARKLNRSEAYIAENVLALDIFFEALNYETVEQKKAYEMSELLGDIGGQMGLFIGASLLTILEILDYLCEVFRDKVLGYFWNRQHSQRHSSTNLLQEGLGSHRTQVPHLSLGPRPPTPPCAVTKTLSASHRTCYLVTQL
Assay: FlexStation assay on HEK293 cells expressing hASIC3
Format: cell-based
Set-up: expressed in transfected cells; host or cells: HEK293 cells
Conditions: FlexStation (Flex), Tables A-F; read-out: Biological Data (IC50 uM) h3 (Flex)

IC50: 5 to 15 µM
SMILES: Cc1cc(OC2CCN(Cc3ccccc3)CC2)c2ccccc2n1 [Compound R, 4-(1-benzyl-piperidin-4-yloxy)-2-methyl-quinoline]
